14 compounds from US20220031901A1, “FRAGRANCE COMPOSITION” (Takasago International Corporation, priority 2020, published 2022) can be followed below.

In assay [1] the target is T1, olfactory receptor OR2L3 (Homo sapiens, UniProt Q8NG85).
T1 construct: N-terminal 20 amino acid residues of bovine rhodopsin (Rho tag); expressed in transfected cells; host or cells: HEK293T
T1 sequence (Q8NG85 1-312): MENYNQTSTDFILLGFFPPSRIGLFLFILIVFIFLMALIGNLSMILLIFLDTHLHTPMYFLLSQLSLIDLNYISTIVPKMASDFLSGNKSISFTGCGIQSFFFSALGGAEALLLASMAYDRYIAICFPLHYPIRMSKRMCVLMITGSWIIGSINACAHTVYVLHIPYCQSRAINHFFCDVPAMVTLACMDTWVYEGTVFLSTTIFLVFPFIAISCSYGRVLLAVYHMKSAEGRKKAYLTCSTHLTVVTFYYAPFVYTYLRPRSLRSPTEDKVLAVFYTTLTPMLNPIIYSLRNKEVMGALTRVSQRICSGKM
Nature of the assay: Response of olfactory receptor OR2L3 to unpleasant odor-causing substance (luciferase reporter gene assay). As to conditions: various concentrations, stimulation 3 hours, HEK293T cells expressing OR2L3; FIGS. 1 to 5. Format: cell-based. The procedure: (§1) A human olfactory receptor gene was obtained by cloning according to the PCR method using Human Genomic DNA: Female (Promega) based on the sequence information registered in GenBank. The N-terminal 20 amino acid residues of bovine rhodopsin were incorporated into a pME18S vector, and the obtained human olfactory receptor gene was further incorporated downstream thereof, thereby obtaining a human olfactory receptor gene expression vector.
(§2) 0.05 μg of the human olfactory receptor gene expression vector, 0.01 μg of an RTP1S vector, 0.01 μg of a firefly luciferase vector pGL4.29 containing a cAMP-responsive sequence promoter (Promega), and 0.005 μg of a Renilla luciferase vector pGL4.74 containing a thymidine kinase promoter (Promega) were dissolved in 10 μL of Opti-MEM I (gibco) to obtain a gene solution (for one well). 100 μL of HEK293T cells were seeded in each well of a 96-well plate (Biocoat manufactured by Corning) so as to reach confluency after 24 hours. According to the directions for use of Lipofectamine 3000, by the lipofection method, the gene solution was added to each well to perform gene transfer to cells, and culturing was performed under 5% carbon dioxide atmosphere at 37° C. for 24 hours.
(§3) After removing the culture medium, 50 μL of CD293 medium (gibco) (20 μM L-glutamine added) including measured concentration of an aroma compound as a sample was added to each well, and stimulation was performed for 3 hours. After that, the luciferase activity was measured according to the directions for use of Dual-Luciferase Reporter Assay System (Promega). The response strength of the olfactory receptor was expressed by the Fold Increase value, which is obtained by dividing the luciferase activity generated by stimulation of the aroma compound by the luciferase activity generated in the test system not including the aroma compound.
Responses of the olfactory receptor OR2L3 to skatole, indole, α-terpineol, 4-terpineol or p-methylacetophenone as a typical example of the unpleasant odor-causing substance were measured with various concentrations by means of luciferase reporter gene assay. […] Meanwhile, in the Mock test (using cells in which OR2L3 was not expressed), no response was shown. That is, it was shown that OR2L3 specifically responds to the respective unpleasant odor-causing substances.
In general terms: Reporter assays use an easily measured gene product as a stand-in for the process of interest.

The nature of assay [2]: Sensory evaluation of ability to suppress model fecal odor by fragrance compositions. Set-up: species or system human. The conditions noted are these: substance blended in the fragrance composition (floral-fruity base); result in words. The procedure: Fragrance compositions of Fragrance 1 to Fragrance 41 were prepared according to the formulations in Tables 2-6 below. DPG in the tables means dipropylene glycol. […] Note that the way of dividing the group and the ratio in the group are optional and not limited by Table 7. The floral-fruity base in Tables 2-6 was prepared according to Table 8.
Regarding these fragrance compositions, the ability to suppress the unpleasant odor was confirmed by means of sensory evaluation. As the unpleasant odor, a model fecal odor containing skatole, indole, butyric acid, p-cresol and dimethyl trisulfide (Lin et al., Environ. Sci. Technol., 2013, 47(14), pp. 7876-7882) was diluted 100-fold, and 10 μL thereof was dropped on a cotton ball, and as a test substance, 1 μL of one of Fragrance 1 to Fragrance 41 was dropped on the cotton ball. Then the cotton ball was put into a plastic bottle (OZO-40 manufactured by Takemoto Yohki Co., Ltd.). The bottle was allowed to stand at room temperature for 1 hour to sufficiently volatilize odor molecules therein. The sensory evaluation test was conducted by a panel consisting of 20 persons, who made evaluation as follows: the unpleasantness in the case where the unpleasant odor was dropped solely was rated as −3, and the unpleasantness in the case where the test substance was mixed was rated as from −4 (extremely unpleasant) to +4 (extremely pleasant). The average value was calculated from obtained numerical values.

Assay [3] can be described thus: Sensory evaluation of unpleasant odor suppression ability of Group A. Details: species or system human. The conditions noted are these: for Indole strength / Skatole strength: average of 20 panelists, scale 0 (not smelled) to 10 (very strongly), unpleasant odor alone = 8, 1 hour; for Indole strength: 10 μL indole diluted 100-fold + 1 μL test substance; for Skatole strength: 10 μL skatole diluted 100-fold + 1 μL test substance; for Effect of suppressing the unpleasant odors (skatole, indole): sensory evaluation, result in words. Here is the method: The unpleasant odor suppression ability of test substances having activity to inhibit receptor action was confirmed by sensory evaluation. A cotton ball on which 10 μL of skatole or indole diluted 100-fold with triethyl citrate as an unpleasant odor and 1 μL of a test substance were dropped was put into a plastic bottle (OZO-40 manufactured by Takemoto Yohki Co., Ltd.). The bottle was allowed to stand at room temperature for 1 hour to sufficiently volatilize odor molecules therein. The sensory evaluation test was conducted by a panel consisting of 20 persons, who made evaluation as follows: the odor strength in the case where the unpleasant odor was dropped solely was rated as 8, and the unpleasant odor strength in the case where the test substance was mixed was rated as from 0 (the unpleasant odor is not smelled) to 10 (the unpleasant odor is smelled very strongly). The average value was calculated from obtained numerical values.

Assay [4] addresses T1, olfactory receptor OR2L3. Kind of assay: Effect of suppressing the response of OR2L3 to unpleasant odor (luciferase reporter gene assay). Type of assay: cell-based. As to conditions: for Effect of suppressing the response of OR2L3 to indole: test substance mixed with indole, FIGS. 9 to 11; for Effect of suppressing the response of OR2L3 to skatole: test substance mixed with skatole, ratio of Fold Increase value, FIGS. 6 to 8. The procedure: as §1, §2, §3
With respect to Group A, the effect of suppressing the response of OR2L3 that strongly responded to unpleasant odors was measured by means of luciferase reporter gene assay. In luciferase reporter gene assay, skatole and Guava coeur (registered trademark) were used by being mixed with a sample. The Fold Increase value in the test in which Guava coeur was not mixed was regarded as 1, and the ratio of the Fold Increase value in the test in which Guava coeur was mixed was obtained.
Guava coeur in the evaluation of the effect of suppressing the response of OR2L3 was replaced by Dextramber (registered trademark), and the test was conducted in the same manner. […] Similarly, Guava coeur was replaced by Hindinol (registered trademark) and the test was conducted.
Regarding the unpleasant odor in the evaluation of the effect of suppressing the response of OR2L3, skatole was replaced by indole, and the test was conducted in the same manner.
In the evaluation of the effect of suppressing the response of OR2L3, the test was further conducted using combinations in which Guava coeur was replaced by another material of Group A and the skatole as the unpleasant odor was replaced by α-terpineol, 4-terpineol or p-methylacetophenone.

As for `CC1=CCC(C(C)(C)O)CC1` (stereo not drawn) [α-terpineol], at olfactory receptor OR2L3 [1], the “Response of the olfactory receptor OR2L3 (Fold Increase value)” value (“Response … (Fold Increase value)” for short) was “concentration-dependent responses”.

Take `O=C1CCCC=CCCCCCCCCCC1` [Ambretone, 5-cyclohexadecenone]: the “Suppression of the unpleasantness of the model fecal odor” value (shortened to “Suppression”) in assay [2] was “suppress the unpleasantness”. Also, in assay [3], the Indole strength is given as 3.6; the Skatole strength came out at 4.2; the “Effect of suppressing the unpleasant odors (skatole, indole)” value (“Effect … (skatole, indole)” for short) is given as “suppress the unpleasant odors”.

On to `Cc1c[nH]c2ccccc12` [skatole], for which the “Response … (Fold Increase value)” value on olfactory receptor OR2L3 [1] is “concentration-dependent responses”.

As for `CCOC(=O)C(C)C(C)S` (stereo not shown) [Guava coeur, ethyl 3-mercapto-2-methylbutyrate], the “Suppression” value in assay [2] is “suppress the unpleasantness”. In addition, in assay [3], the Indole strength came out at 3.3; the Skatole strength is 3.0; the “Effect … (skatole, indole)” value was “suppress the unpleasant odors”. Moreover, at olfactory receptor OR2L3 [4], the “Effect of suppressing the response of OR2L3 to indole” value (from here on “Effect … to indole”) is reported as “concentration-dependently reducing the response” and the “Effect of suppressing the response of OR2L3 to skatole” value (“Effect … to skatole” for short) was “concentration-dependently reducing the response”.

`CCCC(O)CCC1C(C)CCCC1(C)C` (stereo not shown) [Dextramber, 1-(2,2,6-trimethylcyclohexyl)hexan-3-ol]: in assay [2], the “Suppression” value was “suppress the unpleasantness”. Moreover, in assay [3], the Indole strength is reported as 3.9; the Skatole strength worked out at 4.0; the “Effect … (skatole, indole)” value is given as “suppress the unpleasant odors”. In addition, at olfactory receptor OR2L3 [4], the “Effect … to indole” value was “concentration-dependently reducing the response” and the “Effect … to skatole” value is given as “concentration-dependently reducing the response”.

Take `CC1=CCC(O)(C(C)C)CC1` (stereo not shown) [Fragrance 4-terpineol, 4-terpineol]: the “Response … (Fold Increase value)” value at olfactory receptor OR2L3 [1] is given as “concentration-dependent responses”.

With `CC(=O)c1ccc(C)cc1` [p-methylacetophenone], the “Response … (Fold Increase value)” value on olfactory receptor OR2L3 [1] is listed as “concentration-dependent responses”.

As for `c1ccc2[nH]ccc2c1` [indole], at olfactory receptor OR2L3 [1], the “Response … (Fold Increase value)” value is “concentration-dependent responses”.

Consider `CCCCCCOC(=O)c1ccccc1O` [Hexyl salicylate, hexyl salicylate, reference compound], for which, in assay [3], the Indole strength is recorded as 6.7 and the Skatole strength amounted to 6.9. Also, the “Effect … to skatole” value at olfactory receptor OR2L3 [4] is “did not suppress”.

For the compound `CC(c1ccccc1)C1CC1C(C)(C)O` (stereo not shown) [Pamplefix, dimethyl-2-(1-phenylethyl)cyclopropylmethanol], the “Suppression” value in assay [2] is recorded as “suppress the unpleasantness”. Also, in assay [3], the Indole strength was 2.4; the Skatole strength is recorded as 2.5; the “Effect … (skatole, indole)” value is reported as “suppress the unpleasant odors”.

On to methyl fenchol [Humus Ether], for which the “Suppression” value in assay [2] was “suppressed the unpleasantness”. For the same compound, the “Effect … to skatole” value at olfactory receptor OR2L3 [4] is given as “suppresses”.

Regarding `CC(C)(C)C1CCC(O)CC1` (stereo not shown) [4-t-butylcyclohexanol, reference compound], in assay [3], the Indole strength is given as 6.0 and the Skatole strength was 6.3. For the same compound, the “Effect … to skatole” value at olfactory receptor OR2L3 [4] is given as “did not suppress”.

Regarding `CC(=CCC1CC=C(C)C1(C)C)CO` (stereo not shown) [Hindinol, 2-methyl-4-(2,2,3-trimethyl-3-cyclopentenyl)-2-buten-1-ol], the “Suppression” value in assay [2] is recorded as “suppress the unpleasantness”. Further, in assay [3], the Indole strength is 4.1; the Skatole strength turned out to be 3.6; the “Effect … (skatole, indole)” value is given as “suppress the unpleasant odors”. Besides, on olfactory receptor OR2L3 [4], the “Effect … to indole” value is “concentration-dependently reducing the response” and the “Effect … to skatole” value is on record as “concentration-dependently reducing the response”.

For the compound `CC1CCC(C(C)(C)S)C(=O)C1` (stereo not shown) [Ringonol, p-mentha-8-thiol-3-one], the “Suppression” value in assay [2] is listed as “suppress the unpleasantness”. Also, in assay [3], the Indole strength was determined as 3.7; the Skatole strength was found to be 3.9; the “Effect … (skatole, indole)” value is listed as “suppress the unpleasant odors”.
